The record followed here is patent publication US5110798A, “Purine derivatives having pharmacological action” (Co Pharma Corporation S.r.l., priority 1987, dated 1992).

This assay concerns neurokinin receptors such as NK-P, NK-A and NK-B. The following applies: several in vitro models.

For the compound `CSCC[C@H](NC(=O)[C@H](CC(C)C)NC(=O)CNC(=O)OCCCCCn1cnc2c(=O)[nH]cnc21)C(=O)O` [Example 3], the neurokinin-like activity result is recorded as “showed neurokinin-like activity”.
